Laboratory results from the supplement of paper PMC10307832.

Experiments:
Assay in all cases: relative viability (nuclei count vs DMSO), 5 days (fraction); higher = more cells survive
LCLC-97TM1 = tested on: LCLC-97TM1
Summary of the method: (§1)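 Lung cancer cell lines were pin-tool dosed in 1536-well plates on the day after seeding, with either a lone drug or a fixed anchor-drug dose plus five library-drug doses (not always all listed) in √10 steps. Nuclei were counted on 4× images after 5 days. Relative viability is the ratio of treated-well to vehicle-well nuclei counts, with each value a median of duplicate plates.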

NCI-H2087 = tested on: NCI-H2087
Summary of the method: as §1

LCLC-103H = tested on: LCLC-103H
Summary of the method: as §1

LXF-289 = tested on: LXF-289
Summary of the method: as §1

NCI-H727 = tested on: NCI-H727
Summary of the method: as §1

NCI-H1437 = tested on: NCI-H1437
Summary of the method: as §1

NCI-H1792 = tested on: NCI-H1792
Summary of the method: as §1

HCC-827 = tested on: HCC-827
Summary of the method: as §1

NCI-H2405 = tested on: NCI-H2405
Summary of the method: as §1

NCI-H2228 = tested on: NCI-H2228
Summary of the method: as §1

SK-LU-1 = tested on: SK-LU-1
Summary of the method: as §1

RERF-LC-KJ = tested on: RERF-LC-KJ
Summary of the method: as §1

BEN = tested on: BEN
Summary of the method: as §1

CAL-12T = tested on: CAL-12T
Summary of the method: as §1

NCI-H3122 = tested on: NCI-H3122
Summary of the method: as §1

NCI-H1650 = tested on: NCI-H1650
Summary of the method: as §1

NCI-H647 = tested on: NCI-H647
Summary of the method: as §1

201T = tested on: 201T
Summary of the method: as §1

NCI-H322M = tested on: NCI-H322M
Summary of the method: as §1

Compound O=c1cc(N2CCOCC2)oc2c(-c3cccc4c3sc3ccccc34)cccc12 + CC(C)C[C@H](NC(=O)[C@H](Cc1ccccc1)NC(=O)c1cnccn1)B(O)O [Bortezomib] (partner 0.002 µM) has a relative viability (LCLC-97TM1; first compound 0.01 µM) of 0.678, a relative viability (LCLC-97TM1; first compound 0.03162 µM) of 0.535 and a relative viability (LCLC-97TM1; first compound 0.1 µM) of 0.473. For the same compound, the relative viability (LCLC-97TM1; first compound 0.3162 µM) was 0.751, the relative viability (LCLC-97TM1; first compound 1 µM) was 0.406 and the relative viability (NCI-H2087; first compound 0.01 µM) was 0.777. The relative viability (NCI-H2087; first compound 0.03162 µM) was 0.766, the relative viability (NCI-H2087; first compound 0.1 µM) was 0.855 and the relative viability (NCI-H2087; first compound 0.3162 µM) was 0.953. The relative viability (NCI-H2087; first compound 1 µM) was 1.06, the relative viability (LCLC-103H; first compound 0.01 µM) was 1.16 and the relative viability (LCLC-103H; first compound 0.03162 µM) was 1.04. It also gave a relative viability (LCLC-103H; first compound 0.1 µM) of 0.954, a relative viability (LCLC-103H; first compound 0.3162 µM) of 1.04 and a relative viability (LCLC-103H; first compound 1 µM) of 0.877. The relative viability (LXF-289; first compound 0.01 µM) was 1.01, the relative viability (LXF-289; first compound 0.03162 µM) was 0.967 and the relative viability (LXF-289; first compound 0.1 µM) was 1.1. The relative viability (LXF-289; first compound 0.3162 µM) was 1.03, the relative viability (LXF-289; first compound 1 µM) was 1.05 and the relative viability (NCI-H727; first compound 0.01 µM) was 0.961. The relative viability (NCI-H727; first compound 0.03162 µM) was 0.937, the relative viability (NCI-H727; first compound 0.1 µM) was 0.764 and the relative viability (NCI-H727; first compound 0.3162 µM) was 0.84. The relative viability (NCI-H727; first compound 1 µM) was 0.79, the relative viability (NCI-H1437; first compound 0.01 µM) was 0.493 and the relative viability (NCI-H1437; first compound 0.03162 µM) was 0.515. It also gave a relative viability (NCI-H1437; first compound 0.1 µM) of 0.477, a relative viability (NCI-H1437; first compound 0.3162 µM) of 0.527 and a relative viability (NCI-H1437; first compound 1 µM) of 0.57. It also gave a relative viability (NCI-H1792; first compound 0.01 µM) of 0.965, a relative viability (NCI-H1792; first compound 0.03162 µM) of 0.912 and a relative viability (NCI-H1792; first compound 0.1 µM) of 0.965. The relative viability (NCI-H1792; first compound 0.3162 µM) was 0.938, the relative viability (NCI-H1792; first compound 1 µM) was 0.955 and the relative viability (HCC-827; first compound 0.01 µM) was 1.02. It also gave a relative viability (HCC-827; first compound 0.03162 µM) of 0.976, a relative viability (HCC-827; first compound 0.1 µM) of 1.04 and a relative viability (HCC-827; first compound 0.3162 µM) of 1.06. The relative viability (HCC-827; first compound 1 µM) was 1.02, the relative viability (NCI-H2405; first compound 0.01 µM) was 1.01 and the relative viability (NCI-H2405; first compound 0.03162 µM) was 0.941. The relative viability (NCI-H2405; first compound 0.1 µM) was 1.03, the relative viability (NCI-H2405; first compound 0.3162 µM) was 0.987 and the relative viability (NCI-H2405; first compound 1 µM) was 0.988. For the same compound, the relative viability (NCI-H2228; first compound 0.03162 µM) was 0.794, the relative viability (NCI-H2228; first compound 0.1 µM) was 0.926 and the relative viability (NCI-H2228; first compound 0.3162 µM) was 1.33. It also gave a relative viability (NCI-H2228; first compound 1 µM) of 1.14, a relative viability (SK-LU-1; first compound 0.01 µM) of 1.15 and a relative viability (SK-LU-1; first compound 0.03162 µM) of 1.36. It also gave a relative viability (SK-LU-1; first compound 0.3162 µM) of 1.5, a relative viability (SK-LU-1; first compound 1 µM) of 1.17 and a relative viability (RERF-LC-KJ; first compound 0.01 µM) of 1.1. It also gave a relative viability (RERF-LC-KJ; first compound 0.03162 µM) of 1.12, a relative viability (RERF-LC-KJ; first compound 0.1 µM) of 1.13 and a relative viability (RERF-LC-KJ; first compound 0.3162 µM) of 1.22. For the same compound, the relative viability (RERF-LC-KJ; first compound 1 µM) was 1.09, the relative viability (BEN; first compound 0.01 µM) was 0.867 and the relative viability (BEN; first compound 0.03162 µM) was 0.949. The relative viability (BEN; first compound 0.1 µM) was 0.673, the relative viability (BEN; first compound 0.3162 µM) was 0.793 and the relative viability (BEN; first compound 1 µM) was 0.712. For the same compound, the relative viability (CAL-12T; first compound 0.01 µM) was 0.857, the relative viability (CAL-12T; first compound 0.1 µM) was 0.985 and the relative viability (CAL-12T; first compound 0.3162 µM) was 1.01. It also gave a relative viability (CAL-12T; first compound 1 µM) of 0.925, a relative viability (NCI-H3122; first compound 0.01 µM) of 1.02 and a relative viability (NCI-H3122; first compound 0.03162 µM) of 0.907. It also gave a relative viability (NCI-H3122; first compound 0.1 µM) of 1.02, a relative viability (NCI-H3122; first compound 0.3162 µM) of 0.947 and a relative viability (NCI-H3122; first compound 1 µM) of 1.02. The relative viability (NCI-H1650; first compound 0.03162 µM) was 0.243, the relative viability (NCI-H1650; first compound 0.1 µM) was 0.193 and the relative viability (NCI-H1650; first compound 0.3162 µM) was 0.219. It also gave a relative viability (NCI-H1650; first compound 1 µM) of 0.175, a relative viability (NCI-H647; first compound 0.01 µM) of 1.01 and a relative viability (NCI-H647; first compound 0.03162 µM) of 1.1. The relative viability (NCI-H647; first compound 0.1 µM) was 0.98, the relative viability (NCI-H647; first compound 0.3162 µM) was 1.02 and the relative viability (NCI-H647; first compound 1 µM) was 0.924. For the same compound, the relative viability (201T; first compound 0.01 µM) was 1.07, the relative viability (201T; first compound 0.03162 µM) was 1.09 and the relative viability (201T; first compound 0.1 µM) was 0.957. For the same compound, the relative viability (201T; first compound 0.3162 µM) was 1.08, the relative viability (201T; first compound 1 µM) was 1.1 and the relative viability (NCI-H322M; first compound 0.01 µM) was 1.24. It also gave a relative viability (NCI-H322M; first compound 0.03162 µM) of 1.39, a relative viability (NCI-H322M; first compound 0.3162 µM) of 1.19 and a relative viability (NCI-H322M; first compound 1 µM) of 1.03.
